Assay results as given in patent publication US10874669B2 (WAYNE STATE UNIVERSITY, priority 2018, dated 2020).
Read-outs that look alike come from different tables or passages of the source.

What was measured:
PC12 cells [1] = experiment: DCFDA fluorescence assay of intracellular ROS induced by 6-OHDA; assay type: cell-based, rat; details: 20 μM, 24 h pretreatment, then 75 μM 6-OHDA 1 h
Method: Experimental detection of reactive oxygen species (ROS) produced by 6-OHDA was carried out by DCFDA assay. 6-OHDA, a well known neurotoxin, produces oxidative stress similar to what is observed in PD and the mechanism of neurotoxicity of 6-OHDA takes place via its auto-oxidation and subsequent generation of hydrogen peroxide. DCFDA is a non-fluorogenic dye but in the presence of ROS, it is oxidized to produce DCF which produces florescence. We have previously shown that 6-OHDA causes cell death in a dose-dependent manner. We chose 75 μM 6-OHDA as we have shown that this dose induces 40-50% cell death. […] However, the test compounds could dose dependently decrease the production of ROS induced by 6-OHDA (75 μM) in PC12 cells. In this regard, highest dose of all the three compounds was the most efficacious in producing significant antioxidant effect.
PC12 cells (ATCC CRL1721.1, Manassas, Va., USA), a rat adrenal pheochromocytoma cell line, were cultured in T-75 flasks (Greiner Bio One, Frickenhausen, Germany) and maintained in RPMI 1640 medium supplemented with 10% heat inactivated horse serum, 5% fetal bovine sérum, 100 U/ml penicillin, and 100 μg/mL streptomycin at 37° C. in 95% air/5% CO2. […]
PC12 cells were plated at 30,000 cells/well density in 100 μL media in 96-well black plates and incubated at 37° C. under 5% CO2 atmosphere for 24 h. […] After incubation for 1 h, the fluorescence was measured using spectrophotometer fluorescence generated microplate reader (Biotek Epoch, Winooski, Vt., USA) at excitation 497 nm and emission at 527 nm. […] The specific fluorescence emission was calculated after subtraction of the DCFDA untreated control cells from the DCFDA treated cells for both the background and 1 h treatment conditions. This was followed by the division of the 1 h treatment data by the background activity which was determined from vials before treatment with 6-OHDA, to derive the final data point.

human DA D2 receptors = human DA D2 receptors (Homo sapiens (Human), UniProt P14416); experiment: [35S]GTPγS binding stimulation, human D2 receptors in CHO cells; assay type: biochemical; details: for Emax: compared with maximum stimulation by full agonist DA
PC12 cells [2] = experiment: MTT neuroprotection against 6-OHDA-induced toxicity; assay type: cell-based, rat; details: for concentration of greatest protective effect: 24 h pretreatment, then 75 μM 6-OHDA 24 h; for increase in cell survival compared to 6-OHDA treated alone: at concentration of greatest protective effect, 75 μM 6-OHDA
Method: To investigate the neuroprotection property of the selected target molecules (−)-91b, (−)-95a and (−)-95c against 6-OHDA-induced cytotoxicity, we used dopaminergic rat adrenal Pheochromocytoma PC12 cells. As reported above, treatment of PC12 cells with 6-OHDA at 75 μM for 24 h produced ˜50% loss in cells viability and this concentration was used in subsequent experiments. […] However, (−)-95a produced some incremental toxicity starting at 20 μM dose (FIG. 4B). The potential neuroprotective effects of (−)-91b, (−)-95a and (−)-95c against 6-OHDA-induced toxicity were evaluated next. […] At those concentration both drugs increased cell survival by ˜20% compared to 6-OHDA (75 μM) treated alone (FIGS. 4D and 4F), indicating neuroprotective effect of these drugs. […] This could be due to the fact that the compound by itself produced toxicity to the cells at doses ≥20 μM and the presence of 6-OHDA enhanced the toxicity (FIG. 4B).
PC12 cells (ATCC CRL1721.1, Manassas, Va., USA), a rat adrenal pheochromocytoma cell line, were cultured in T-75 flasks (Greiner Bio One, Frickenhausen, Germany) and maintained in RPMI 1640 medium supplemented with 10% heat inactivated horse serum, 5% fetal bovine serum, 100 U/ml penicillin, and 100 μg/mL streptomycin at 37° C. in 95% air/5% CO2. Stock solutions of (−)-91b, (−)-95a, (−)-95c, and 6-hydroxydopamine (6-OHDA) were prepared in dimethylsulfoxide (DMSO) and aliquots were stored at −20° C. and −80° C., respectively. For all experiments assessing neuroprotective effects of the test compounds, PC12 cells were pretreated with indicated concentrations of (−)-91b, (−)-95a and (−)-95c for 24 h and then treated with 75 μM 6-OHDA for another 24 h. The control cells were treated with above media containing 0.01% DMSO only.
PC12 cells were plated at 17000 cells/well density in 100 μL of media in 96-well plates and incubated at 37° C. under 5% CO2 atmosphere for 24 h. Cells were treated with varying concentrations of the test compounds to determine their direct effect on cell viability. Neuroprotection experiments were conducted by treating cells for 24 h with varying concentrations of (−)-91b, (−)-95a and (−)-95c. Then the drug containing media was replaced with fresh culture media followed by treatment with 75 μM of 6-OHDA alone for an additional 24 h under the same condition. After incubation for 24 h, 5 mg/mL MTT solution (prepared in Dulbecco's phosphate-buffered saline) was added to the cells (to a final concentration of 0.5 mg/mL) and the plates were further incubated at 37° C. in 95% air/5% CO2 atmosphere for 3-4 h to produce dark-blue formazan crystals. Afterward, the plates were centrifuged at 450 g for 10 min and the supernatants were carefully removed. Formazan crystals were dissolved by adding 100 μL of methanol:DMSO (1:1) mixture to each well and shaking gently at 400 rpm for 30 min at room temperature on a Thermomix R shaker (Eppendorf, Hamburg, Germany). The absorbance was measured on a microplate reader (Biotek Epoch, Winooski, Vt., USA) at 570 nm with background correction performed at 690 nm. Data from at least three experiments were analyzed using GraphPad software (version 6, San Diego, Calif., USA). Cell viability was defined as […] compared to untreated controls.

human DA D3 receptors = human DA D3 receptors (Homo sapiens (Human), UniProt P35462); experiment: [35S]GTPγS binding stimulation, human D3 receptors in CHO cells; assay type: biochemical; details: for Emax: compared with maximum stimulation by full agonist DA
Chain of human DA D3 receptors (P35462 whole entry): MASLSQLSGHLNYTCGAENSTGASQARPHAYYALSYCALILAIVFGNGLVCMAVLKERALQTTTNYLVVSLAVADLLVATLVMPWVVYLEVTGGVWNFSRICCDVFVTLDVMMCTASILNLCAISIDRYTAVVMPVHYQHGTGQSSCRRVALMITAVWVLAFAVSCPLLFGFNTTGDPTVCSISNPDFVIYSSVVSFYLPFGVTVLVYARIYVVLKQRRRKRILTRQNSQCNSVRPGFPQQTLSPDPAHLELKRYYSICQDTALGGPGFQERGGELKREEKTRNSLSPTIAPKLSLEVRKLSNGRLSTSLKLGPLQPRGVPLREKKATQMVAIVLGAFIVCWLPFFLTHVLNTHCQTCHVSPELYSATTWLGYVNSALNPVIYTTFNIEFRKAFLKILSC

Chain of human DA D2 receptors (P14416 whole entry): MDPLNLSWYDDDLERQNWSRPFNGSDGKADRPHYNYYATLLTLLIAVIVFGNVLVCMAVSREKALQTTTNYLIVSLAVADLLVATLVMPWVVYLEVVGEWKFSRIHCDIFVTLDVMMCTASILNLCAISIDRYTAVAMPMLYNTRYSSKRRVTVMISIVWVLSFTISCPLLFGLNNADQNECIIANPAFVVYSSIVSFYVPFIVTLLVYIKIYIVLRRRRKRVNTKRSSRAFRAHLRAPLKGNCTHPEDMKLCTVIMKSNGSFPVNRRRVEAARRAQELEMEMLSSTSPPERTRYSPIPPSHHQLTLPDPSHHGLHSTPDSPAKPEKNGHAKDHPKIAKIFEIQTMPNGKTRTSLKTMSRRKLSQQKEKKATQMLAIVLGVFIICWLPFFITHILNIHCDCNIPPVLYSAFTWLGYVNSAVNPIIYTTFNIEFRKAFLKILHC

Row | EC50 (human DA D2 receptors; CHO cells, read-out: EC50 (GTPγS), D2) | EC50 (human DA D3 receptors; CHO cells, read-out: EC50 (GTPγS), D3) | Compound | reduction in ROS (PC12 cells [1]) | Emax (human DA D2 receptors) | concentration of greatest protective effect (PC12 cells [2]) | increase in cell survival compared to 6-OHDA treated alone (PC12 cells [2]) | Emax (human DA D3 receptors) | EC50 (human DA D2 receptors) | EC50 (human DA D3 receptors)
1 | 48700 pM | 960 pM | CCCN(CCN1CCN(c2ccc3[nH]c4ccccc4c3c2)CC1)[C@H]1CCc2nc(N)sc2C1 [(−)-91b, (S)—N^6-(2-(4-(9H-carbazol-3-yl)piperazin-1-yl)ethyl)-N^6-propyl-4,5,6,7-tetrahydrobenzo[d]thiazole-2,6-diamine] | 76% | 87 to 93% | 5 µM | ~20% | 87 to 93% |  | 
2 |  |  | CCCN(CCN1CCN(c2ccc3c(c2)[nH]c2ccccc23)CC1)[C@H]1CCc2c(O)cccc2C1 [Compound (−)-95a, (S)-6-((2-(4-(9H-carbazol-2-yl)piperazin-1-yl)ethyl)(propyl)amino)-5,6,7,8-tetrahydronaphthalen-1-ol] | 93% | 85 to 92% | 10 µM | 15% | 85 to 92% | 870 pM | 230 pM
